From patent CN112516145A, “小分子化合物wk369在制备治疗卵巢癌药物中的应用” (East China Normal University, priority 2019, dated 2021)

Assays:
[1] = target: T1, BCL6 (Homo sapiens, UniProt P41182); conditions: greater than 50 or even 200; cited from earlier work
[2] = target: T1, BCL6; conditions: cited from earlier work
[3] = animal level; cited from earlier work
[4] = test system: SKOV3 cells; assay: Transwell invasion assay, SKOV3; assay type: cell-based, human
[5] = test system: ES-2 cells; assay: Apoptosis by AnnexinV/PI flow cytometry, ES-2; assay type: cell-based, human; conditions: ES-2, 48 h
[6] = test system: PARP; assay: PARP protein by electrophoresis (blot), SKOV3; assay type: cell-based, human
[7] = test system: PARP; assay: PARP protein by electrophoresis (blot), ES-2; assay type: cell-based, human
[8] = test system: P53; assay: qRT-PCR of BCL6 downstream gene P53 in ovarian cancer cells; assay type: cell-based; conditions: ES-2, H08910PM, SKOV3, 24 h
[9] = test system: mouse germinal center formation (小鼠生发中心的形成); assay: Mouse germinal center formation model; assay type: in vivo; conditions: 50mg/kg/d, intraperitoneal, 12 days
[10] = test system: normal cell lines HAF, L02, NCM460, 293T, PNT1A (正常细胞株); assay: SRB proliferation assay, normal cell lines; assay type: cell-based, human; conditions: Fig. 4(C)
[11] = test system: ES-2 cells; assay: ES-2-luc ovarian cancer intraperitoneal metastasis mouse model; assay type: in vivo, human ES-2 cells in mouse; conditions: 50mg/kg
[12] = test system: CDKN1A; assay: qRT-PCR of BCL6 downstream gene CDKN1A in ovarian cancer cells; assay type: cell-based; conditions: ES-2, H08910PM, SKOV3, 24 h
[13] = Body weight, behaviour and organ HE staining in SKOV3 xenograft mice
[14] = test system: CyclinB1, cdc25C, CyclinD1; assay: Cell cycle regulatory proteins by electrophoresis (blot), ES-2; assay type: cell-based, human
[15] = test system: BCL6-low-expressing ovarian cancer cell line IGROV-1 (BCL6低表达卵巢癌细胞株); assay: SRB proliferation assay, BCL6-low ovarian cancer cell line; assay type: cell-based, human
[16] = test system: SKOV3 cells; assay: Scratch lateral migration assay, SKOV3; assay type: cell-based, human; conditions: 1, 5, 10 μM, about 12 h
[17] = test system: ES-2 cells; assay: Transwell invasion assay, ES-2; assay type: cell-based, human
[18] = test system: CyclinB1, cdc25C, CyclinD1; assay: Cell cycle regulatory proteins by electrophoresis (blot), SKOV3; assay type: cell-based, human
[19] = mouse, in vivo
[20] = test system: ATR; assay: qRT-PCR of BCL6 downstream gene ATR in ovarian cancer cells; assay type: cell-based; conditions: ES-2, H08910PM, SKOV3, 24 h
[21] = test system: BCL6-high-expressing ovarian cancer cells ES-2, SKOV3, H08910PM, MCAS, CAOV3, OVCAR8 (BCL6高表达卵巢癌细胞); assay: Colony formation assay; assay type: cell-based, human
[22] = test system: SKOV3 tumor (SKOV3肿瘤); assay: SKOV3 subcutaneous xenograft in nude mice, tumor growth; assay type: in vivo, human SKOV3 cells in nude mouse; conditions: intraperitoneal once daily, about 21 days
[23] = test system: Ki67; assay: Immunohistochemistry of Ki67 in SKOV3 xenograft; assay type: in vivo, human SKOV3 cells in nude mouse
[24] = test system: BCL6 downstream genes ATR, P53, CDKN1A (BCL6下游基因); assay: qPCR of BCL6 downstream genes in SKOV3 xenograft; assay type: in vivo, human SKOV3 cells in nude mouse
[25] = test system: BCL6 transcriptional repression activity (BCL6的转录抑制活性); assay: Luciferase reporter gene assay of BCL6 transcriptional repression (293T cells); assay type: cell-based; conditions: 24 h
[26] = test system: ES-2 cells; assay: Cell cycle by flow cytometry, ES-2; assay type: cell-based, human; conditions: ES-2, 24 h
[27] = test system: ES-2 cells; assay: Scratch lateral migration assay, ES-2; assay type: cell-based, human; conditions: 1, 5, 10 μM, about 12 h
[28] = Behaviour and adverse reactions in ES-2 intraperitoneal metastasis mice; conditions: 50mg/kg, continuous dosing, 30 days
[29] = test system: SKOV3 cells; assay: Apoptosis by AnnexinV/PI flow cytometry, SKOV3; assay type: cell-based, human; conditions: SKOV3, 48 h
[30] = test system: SKOV3 cells; assay: Cell cycle by flow cytometry, SKOV3; assay type: cell-based, human; conditions: SKOV3, 24 h
[31] = target: T2, BCL6-SMRT interaction (BCL6片段蛋白与多肽SMRT的相互作用) (Homo sapiens, UniProt P41182); assay: HTRF assay of inhibition of BCL6 fragment protein - SMRT polypeptide interaction; assay type: biochemical
T2 construct: 本发明所需BCL6蛋白N端的BTB/POZ结构域序列为; made in house

[32] = test system: patients with platinum-sensitive recurrent ovarian cancer (铂敏感的复发型卵巢癌患者); conditions: clinical phase II and III; cited from earlier work

O=C(O)CC(C(=O)O)N1C(=O)C(=C2C(=O)Nc3ccc(Br)cc32)SC1=S (stereo not shown) [79-6]
concentration exerting function at molecular and cellular level [1]: > 50 µM

CNC(=O)COc1cc2cc(Nc3nc(N4C[C@H](C)C[C@H](C)C4)ncc3Cl)ccc2n(C)c1=O [BI3802]
biological activity at animal level [2]: 生物活性差 | absorption [3]: 很难被吸收

C[C@@H]1CN(c2ncc(F)c(Nc3ccc4oc(=O)ccc4c3)n2)C[C@H](C)N1 [WK369]
number of invading cells ([4]; SKOV3, 1 μM, 12-24 h): 已显著减少 | cells that invade ([4]; SKOV3, 10 μM, 12-24 h): 只有极少数的细胞发生侵袭 | inhibition of invasion ([4]; SKOV3, high concentration (FX1 10 μM), WK369 1, 5, 10 μM): 显著抑制 | induction of apoptosis compared with positive compound [5]: 更显著地诱导 | full-length PARP protein [6]: 显著下调 | truncated PARP protein [6]: 上调 | full-length PARP protein [7]: 显著下调 | truncated PARP protein [7]: 上调 | upregulation of P53 expression ([8]; 1, 5, 10, 20 μM): 几倍至十几倍 | upregulation of P53 expression compared with FX1 ([8]; FX1 20 μM): 更为显著地上调 | decrease in germinal center B cell proportion compared with positive compound [9]: 下降比例更为显著 | inhibition of mouse germinal center formation [9]: 均能抑制小鼠生发中心的形成 | difference in half-maximal proliferation inhibition activity between human ovarian cancer and human normal cell lines [10]: 具有显著性差异 | survival rate of mice [11]: 有效提高 | intraperitoneal spread and metastasis ([11]; 30 days): 有效抑制 | tumor growth (bioluminescence) ([11]; 30 days): 显著降低 | number of tumor nodules on the surface of abdominal organs (liver, spleen, kidney, intestine, ovary) ([11]; 30 days, compared with control group): 明显减少 | upregulation of CDKN1A expression ([12]; 1, 5, 10, 20 μM, highest): 最高可上调几十倍 | upregulation of CDKN1A expression compared with FX1 ([12]; FX1 20 μM): 更为显著地上调 | toxicity to major organs (heart, liver, spleen, lung, kidney), HE staining [13]: 没有明显毒性 | CyclinB1 expression [14]: 显著下调 | CyclinD1 expression [14]: 显著下调 | cdc25C expression [14]: 显著下调 | IC50 ([15]; BCL6-low-expressing ovarian cancer cells (IGROV-1), 72 h, read-out: half-maximal proliferation inhibition activity): ~16 µM | difference in half-maximal proliferation inhibition activity between BCL6-high and BCL6-low ovarian cancer cell lines ([15]; Fig. 4(D)): 具有显著性差异 | inhibition of migration [16]: 浓度依赖性地抑制 | number of invading cells ([17]; ES-2, 1 μM, 12-24 h): 已显著减少 | cells that invade ([17]; ES-2, 10 μM, 12-24 h): 只有极少数的细胞发生侵袭 | inhibition of invasion ([17]; ES-2, high concentration (FX1 10 μM), WK369 1, 5, 10 μM): 显著抑制 | CyclinB1 expression [18]: 显著下调 | CyclinD1 expression [18]: 显著下调 | cdc25C expression [18]: 显著下调 | abnormal behaviour and adverse reactions [19]: 并未发现小鼠异常行为和不良反应 | body weight change compared with blank control [19]: 没有明显变化 | upregulation of ATR expression ([20]; 1, 5, 10, 20 μM): 几倍至十几倍 | upregulation of ATR expression compared with FX1 ([20]; FX1 20 μM): 更为显著地上调 | inhibition of colony formation compared with FX1 ([21]; BCL6-high-expressing lines): 显著优于阳性化合物FX1 | inhibition of colony formation ([21]; BCL6-high-expressing lines, one week): 很显著的抑制效果 | inhibition of colony formation, BCL6-high compared with BCL6-low ovarian cancer cell lines ([21]; compared with BCL6-low-expressing line): 对BCL6高表达卵巢癌细胞株的抑制效果更为明显 | inhibition of tumor growth compared with FX1 (50mg/kg) ([22]; 25mg/kg): 显著优于阳性化合物FX1 | inhibition of tumor growth, 50mg/kg compared with 25mg/kg ([22]; 50mg/kg vs 25mg/kg): 效果显著优于本发明化合物WK36925mg/kg的给药剂量 | tumor proliferation ([22]; 50mg/kg): 肿瘤增殖非常缓慢 | inhibition of tumor growth ([22]; 25 and 50mg/kg): 有效抑制肿瘤的生长 | expression of tumor proliferation marker Ki67 [23]: 显著降低 | upregulation of BCL6 downstream genes in vivo compared with positive compound [24]: 更好地上调 | BCL6 transcriptional repression activity at 20 μM ([25]; 20 μM): 完全消除 | inhibition of BCL6 transcriptional repression activity ([25]; concentration series, compared with positive compound): 浓度依赖性抑制BCL6的转录抑制活性,效果显著优于阳性化合物 | cell cycle arrest at G2M phase [26]: 浓度依赖性地诱导 | inhibition of migration [27]: 浓度依赖性地抑制 | toxicity [28]: 没有明显毒性 | induction of apoptosis compared with positive compound [29]: 更显著地诱导 | cell cycle arrest at G2M phase [30]: 浓度依赖性地诱导 | IC50 ([31]; 6His-SMRT 200 nM, BCL6-GST 6.25 nM, room temperature overnight, read-out: half-maximal inhibitory concentration (IC50)): 0.315 µM | fold improvement over FX1 in inhibiting BCL6 fragment protein - SMRT interaction ([31]; WK369 versus positive compound FX1): ~120 fold

O=C(c1cc(Cc2n[nH]c(=O)c3ccccc23)ccc1F)N1CCN(C(=O)C2CC2)CC1 [奥卡帕尼]
overall survival (OS) [32]: 并不能延长
